Test results as given in US10968265B2, “Antibody-coupled cyclic peptide tyrosine tyrosine compounds as modulators of neuropeptide Y receptors” (Janssen Pharmaceutica NV, priority 2016, dated 2021).

Experiments:
[1] = Weight loss in diet-induced obese mice: chronic dosing; format: in vivo, mouse; conditions: for body weight: 0.3 nmol/kg s.c. every day
Protocol: (§1) Compound 1 was evaluated for its ability to reduce foot intake and body weight and improve glucose homeostasis on repeat dosing in male DIO C57Bl/6 mice over a period of 8 days. Male DIO C57BL/6N mice (20 weeks of age, 14 weeks on high fat diet) were obtained from Taconic Laboratory. […] Animals were acclimated to the facility for at least one week prior to the start of the experiment.
(§2) The day prior to dosing, mice were grouped based on individual body weights. At 3:00-4:00 pm for each of the next 8 days, animals and food intake were weighed. […] After 8 days, mice are fasted for 5 hours and then given a 2 g/kg bolus of glucose orally at t=0. At t=0, 30, 60, 90, and 120 minutes post glucose challenge blood glucose is measured and at t=0, 30, and 90 minutes blood in drawn to measure plasma insulin. […] All data are presented as the mean±SEM (FIG. 7, FIG. 8, and Tables 8-11).

[2] = OGTT after 8 days of treatment in DIO mice; format: in vivo, mouse; conditions: 0.3 nmol/kg every day
Protocol: as §1, §2

[3] = Single dose, food intake and body weight in Sprague-Dawley rats; format: in vivo, rat; parameters: body weight change: unit not given here; conditions: single dose 0.3 nmol/kg s.c. (Dulaglutide); for absolute body weight: in g (unit assumed)
Protocol: Compound 1 was evaluated for its ability to reduce foot intake and body weight in Sprague-Dawley after a single dose. The animals were obtained from Charles River Labs (Wilmington, Mass.) at 200-225 g body weight and used within one week of delivery. They were housed one per cage on alpha dry bedding and a plastic tube for enrichment in a temperature-controlled room with 12-hour light/dark cycle. […] Animal weights were taken and recorded for each rat prior to dosing.
Body weights and food intake were measured 1, 2 and 3 days after dosing and the percentages of weight loss and reduction in food intake were calculated. […] All data are presented as the mean±SEM (Tables 18-20).

Dulaglutide
fed Blood Glucose ([1]; 0.3 nmol/kg every day, after 8 days of treatment): 114 ± 13 mg/dL | body weight ([1]; Day 0): 45.9 ± 0.6 g | body weight ([1]; Day 1): 44.1 ± 0.6 g | body weight ([1]; Day 2): 42.2 ± 0.6 g | body weight ([1]; Day 3): 40.6 ± 0.6 g | body weight ([1]; Day 4): 39.3 ± 0.6 g | body weight ([1]; Day 5): 38.1 ± 0.7 g | body weight ([1]; Day 6): 37.1 ± 0.8 g | body weight ([1]; Day 7): 36.4 ± 1.0 g | body weight ([1]; Day 8): 36.5 ± 1.1 g | body weight ([1]; Day −1): 46.3 ± 0.6 g | blood glucose (mg/dL) during OGTT ([2]; 0 min after glucose challenge): 76 ± 9 mg/dL | insulin (ng/mL) during OGTT ([2]; 0 min after glucose challenge): 0.6 ± 0.1 ng/mL | blood glucose (mg/dL) during OGTT ([2]; 30 min after glucose challenge): 151 ± 14 mg/dL | insulin (ng/mL) during OGTT ([2]; 30 min after glucose challenge): 1.7 ± 0.2 ng/mL | blood glucose (mg/dL) during OGTT ([2]; 60 min after glucose challenge): 174 ± 17 mg/dL | blood glucose (mg/dL) during OGTT ([2]; 90 min after glucose challenge): 104 ± 10 mg/dL | insulin (ng/mL) during OGTT ([2]; 90 min after glucose challenge): 0.7 ± 0.2 ng/mL | blood glucose (mg/dL) during OGTT ([2]; 120 min after glucose challenge): 119 ± 9 mg/dL | glucose Delta AUC (mg/dl/120 min) ([2]; OGTT): 6668 ± 1846 mg/dl/120 min | glucose Total AUC (mg/dl/120 min) ([2]; OGTT): 15758 ± 1054 mg/dl/120 min | body weight change ([3]; Day 0): 0.0 ± 0.0 | daily food intake ([3]; Day 0): 26.6 ± 0.8 | absolute body weight ([3]; Day 0): 270.3 ± 3.0 | body weight change ([3]; Day 1): 10.6 ± 1.6 | daily food intake ([3]; Day 1): 27.3 ± 1.2 | absolute body weight ([3]; Day 1): 280.8 ± 4.2 | body weight change ([3]; Day 2): 22.5 ± 0.8 | daily food intake ([3]; Day 2): 30.0 ± 0.7 | absolute body weight ([3]; Day 2): 292.47 ± 3.6 | body weight change ([3]; Day 3): 28.7 ± 0.6 | daily food intake ([3]; Day 3): 30.1 ± 0.7 | absolute body weight ([3]; Day 3): 299.0 ± 3.3 | body weight change ([3]; Day −1): −6.3 ± 0.8 | absolute body weight ([3]; Day −1): 264.0 ± 3.1 | Total Food Consumption ([3]; over three days): 87.4 ± 2.0
